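Grown in 96-well plates, cells were treated for 48 hours with each compound at five concentrations. Insufficient inhibition: endpoint recorded as highest concentration tested. The concentration for 50% growth inhibition is given as GI50.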 Active and inactive are the calls of the source. No stated cut-off is given here; in the data, active = GI50 up to about 1.1 µM and inactive = higher.
Experiments:
Test in all cases: NCI anticancer screen, dose series, 48 h
NCI-H522 = system: NCI-H522
KM12 = system: KM12
MDA-N = system: MDA-N
EKVX = system: EKVX
Malme-3M = system: Malme-3M
A498 = system: A498
SK-MEL-28 = system: SK-MEL-28
NCI-H23 = system: NCI-H23
UACC-257 = system: UACC-257
M14 = system: M14
SW-620 = system: SW-620
HL-60 = system: HL-60
TK-10 = system: TK-10
CAKI-1 = system: CAKI-1
MCF7 = system: MCF7
RXF 393 = system: RXF 393
HT-29 = system: HT-29
DU-145 = system: DU-145
SN12C = system: SN12C
T47D = system: T47D

SMILES	GI50 (NCI-H522)	GI50 (KM12)	GI50 (MDA-N)	GI50 (EKVX)	GI50 (Malme-3M)	GI50 (A498)	GI50 (SK-MEL-28)	GI50 (NCI-H23)	GI50 (UACC-257)	GI50 (M14)	GI50 (SW-620)	GI50 (HL-60)	GI50 (TK-10)	GI50 (CAKI-1)	GI50 (MCF7)	GI50 (RXF 393)	GI50 (HT-29)	GI50 (DU-145)	GI50 (SN12C)	GI50 (T47D)
O=C(c1ccccc1F)c1c(NCc2ccccc2)c(=O)c1=O	19.9 µM (inactive)	> 100 µM (inactive)	> 100 µM (inactive)	> 100 µM (inactive)	> 100 µM (inactive)	> 100 µM (inactive)	> 100 µM (inactive)	> 100 µM (inactive)	> 100 µM (inactive)	> 100 µM (inactive)	> 100 µM (inactive)	> 100 µM (inactive)	> 100 µM (inactive)	> 100 µM (inactive)	> 100 µM (inactive)	> 100 µM (inactive)	> 100 µM (inactive)	> 100 µM (inactive)	> 100 µM (inactive)	
CCC[C@H](C)C[C@H](C)C[C@H](C)/C=C(\C)[C@@H](O)[C@@H](C)C(=O)CC	17.6 µM (inactive)	20.2 µM (inactive)		18.8 µM (inactive)	18.5 µM (inactive)	25.5 µM (inactive)	18.7 µM (inactive)	18.9 µM (inactive)	20.1 µM (inactive)	19.8 µM (inactive)	20.3 µM (inactive)	17.9 µM (inactive)	23.2 µM (inactive)	22.4 µM (inactive)	21.3 µM (inactive)	20.7 µM (inactive)	19.5 µM (inactive)	23.5 µM (inactive)	18.8 µM (inactive)	23.6 µM (inactive)
CC(C)CC(NC(=O)C(CSc1ccc([N+](=O)[O-])cc1)Cc1ccccc1)C(=O)Nc1ccccc1 (stereo not drawn)	64.9 µM (inactive)	41.4 µM (inactive)	> 100 µM (inactive)	> 100 µM (inactive)	27 µM (inactive)	> 100 µM (inactive)	98.2 µM (inactive)	> 100 µM (inactive)	> 100 µM (inactive)	99.8 µM (inactive)	> 100 µM (inactive)	40.9 µM (inactive)	58.2 µM (inactive)	72.1 µM (inactive)	63.7 µM (inactive)	> 100 µM (inactive)		89.3 µM (inactive)	> 100 µM (inactive)	
CC1(C)OC1CC/C(=C/CBr)CBr (stereo not drawn)	10.3 µM (inactive)	16 µM (inactive)	15.3 µM (inactive)	18.1 µM (inactive)	22.3 µM (inactive)	21.4 µM (inactive)	17.2 µM (inactive)	15.5 µM (inactive)	14.9 µM (inactive)	19.8 µM (inactive)	15 µM (inactive)	4.92 µM (inactive)	18.2 µM (inactive)	17.9 µM (inactive)	15 µM (inactive)	17 µM (inactive)	14.9 µM (inactive)	20.9 µM (inactive)	15.6 µM (inactive)	
CCCCCCCCCC[C@@H](O)[C@@H]1CC[C@@H]([C@@H]2CC[C@@H]([C@@H](O)CCCCCCCCCC[C@H](O)CC3=CC(C)OC3=O)O2)O1 (stereo partly drawn)	1.72 µM (inactive)	2.16 µM (inactive)		1.61 µM (inactive)	1.79 µM (inactive)	1.7 µM (inactive)	3.36 µM (inactive)		0.356 µM (active)	3.71 µM (inactive)	3.78 µM (inactive)	0.102 µM (active)	3.48 µM (inactive)	12.1 µM (inactive)	1.44 µM (inactive)	3.22 µM (inactive)	2.51 µM (inactive)	8.95 µM (inactive)	5.62 µM (inactive)	2.63 µM (inactive)
C[C@@H]1CCC[C@]2(C)O[C@H]2CC[C@@](C)(O)[C@@H]2CC3=C(CO)C(=O)O[C@H]3[C@H]1O2	28.4 µM (inactive)	> 50 µM (inactive)		> 50 µM (inactive)		> 50 µM (inactive)	> 50 µM (inactive)	> 50 µM (inactive)	> 50 µM (inactive)	> 50 µM (inactive)	> 50 µM (inactive)	> 5 µM (inactive)	> 50 µM (inactive)	> 50 µM (inactive)	> 50 µM (inactive)	> 50 µM (inactive)	> 50 µM (inactive)	> 50 µM (inactive)	> 50 µM (inactive)	> 50 µM (inactive)
CC(=O)O[C@@]12CO[C@@H]1C[C@H](O)[C@@]1(C)C(=O)[C@H](O)C3=C(C)[C@@H](OC(=O)[C@H](O)[C@@H](NC(=O)OC(C)(C)C)c4ccccc4)C[C@@](O)([C@@H](OC(=O)c4ccccc4)[C@H]21)C3(C)C [DOCETAXEL]	< 0.01 µM (active)	< 0.01 µM (active)	0.0001 µM (active)	3.72 µM (inactive)	> 10 µM (inactive)	< 0.0851 µM (active)		< 0.01 µM (active)	0.455 µM (active)		< 0.01 µM (active)	< 0.0631 µM (active)	0.225 µM (active)	0.0417 µM (active)	0.000409 µM (active)	0.242 µM (active)	< 0.01 µM (active)		< 0.01 µM (active)	
CCC(=O)O[C@H]1CC[C@H]2[C@@H]3CCC4=CC(=O)C=C[C@]4(O)[C@H]3CC[C@]12C	16.7 µM (inactive)	18.5 µM (inactive)	2.95 µM (inactive)	25.9 µM (inactive)	48 µM (inactive)	> 100 µM (inactive)	67.6 µM (inactive)	22 µM (inactive)	3.72 µM (inactive)	22.5 µM (inactive)	17.9 µM (inactive)	11.9 µM (inactive)	57.4 µM (inactive)	24.3 µM (inactive)	23.9 µM (inactive)	24.5 µM (inactive)	19.1 µM (inactive)	22.8 µM (inactive)	41.9 µM (inactive)	
Cc1ccc2c(c1)C(O)(c1ccccc1)CCS2 (stereo not drawn)	19.7 µM (inactive)	22.6 µM (inactive)		51.4 µM (inactive)	32.9 µM (inactive)		37.6 µM (inactive)	28.5 µM (inactive)	42 µM (inactive)	25.4 µM (inactive)	31 µM (inactive)	28.2 µM (inactive)	32.1 µM (inactive)	22 µM (inactive)	39.4 µM (inactive)	68.5 µM (inactive)	25.4 µM (inactive)	46.3 µM (inactive)	32.6 µM (inactive)	28.2 µM (inactive)
Cc1ccc(/C=C/C(=N/NC(=O)N/N=C(/C=C/c2ccc(C)cc2)C(C)C)C(C)C)cc1	9.12 µM (inactive)	> 10 µM (inactive)	> 10 µM (inactive)	> 10 µM (inactive)	> 10 µM (inactive)			> 10 µM (inactive)	> 10 µM (inactive)	> 10 µM (inactive)	> 10 µM (inactive)	4.42 µM (inactive)	> 10 µM (inactive)	> 10 µM (inactive)	> 10 µM (inactive)	> 10 µM (inactive)	> 10 µM (inactive)	> 10 µM (inactive)	9.77 µM (inactive)	
CO[C@@H]1C[C@H]2N3CC[C@@]2(c2cc4c(cc2C3)OCO4)[C@H]2O[C@@H]12	> 100 µM (inactive)	> 100 µM (inactive)	> 100 µM (inactive)	> 100 µM (inactive)	> 100 µM (inactive)	> 100 µM (inactive)	> 100 µM (inactive)	> 100 µM (inactive)	> 100 µM (inactive)	> 100 µM (inactive)	> 100 µM (inactive)	> 100 µM (inactive)	> 100 µM (inactive)	> 100 µM (inactive)	> 100 µM (inactive)	> 100 µM (inactive)	> 100 µM (inactive)	> 100 µM (inactive)	> 100 µM (inactive)	
CN(C)C1(N(C)C)Oc2c(c(=O)n(C)c(=O)n2C)C(c2ccc(F)cc2)C1(F)F (stereo not drawn)		> 100 µM (inactive)		> 100 µM (inactive)		> 100 µM (inactive)	> 100 µM (inactive)	> 100 µM (inactive)	> 100 µM (inactive)	> 100 µM (inactive)	> 100 µM (inactive)		> 100 µM (inactive)	> 100 µM (inactive)	> 100 µM (inactive)	> 100 µM (inactive)		> 100 µM (inactive)		> 100 µM (inactive)
O=C(N/C(=C/c1ccc(Cl)cc1Cl)c1nc2ccccc2s1)c1ccccc1	8.34 µM (inactive)	13.2 µM (inactive)		18.5 µM (inactive)	16.4 µM (inactive)		15.6 µM (inactive)	11.8 µM (inactive)	13.4 µM (inactive)	17.7 µM (inactive)	10.7 µM (inactive)	32.4 µM (inactive)	21 µM (inactive)	15.8 µM (inactive)	16.2 µM (inactive)	31 µM (inactive)	19.3 µM (inactive)	16.2 µM (inactive)	9.68 µM (inactive)	13.4 µM (inactive)
O=C(O)Cn1nnc2c(=O)[nH][nH]c(=O)c21		> 100 µM (inactive)	> 100 µM (inactive)	> 100 µM (inactive)	> 100 µM (inactive)		> 100 µM (inactive)	> 100 µM (inactive)	> 100 µM (inactive)	> 100 µM (inactive)		> 100 µM (inactive)	> 100 µM (inactive)	> 100 µM (inactive)	> 100 µM (inactive)		> 100 µM (inactive)	> 100 µM (inactive)	> 100 µM (inactive)	
OC1[C@H]([C@H]2CCCC[C@@H]2O)CCC[C@@H]1[C@@H]1CCCC[C@H]1O (stereo partly drawn)	> 100 µM (inactive)	> 100 µM (inactive)		> 100 µM (inactive)	> 100 µM (inactive)	> 100 µM (inactive)	> 100 µM (inactive)	> 100 µM (inactive)	> 100 µM (inactive)	> 100 µM (inactive)	> 100 µM (inactive)	> 100 µM (inactive)	> 100 µM (inactive)	> 100 µM (inactive)		> 100 µM (inactive)	> 100 µM (inactive)		> 100 µM (inactive)	
